Assay results taken from patent US20260199213A1, “PEPTIDE HAVING ACTIVITY OF IMPROVING STATE OF SKIN, AND USE THEREOF” (CAREGEN CO., LTD., priority 2022, published 2026).

Experiments:
Type in all cases: cell-based
Col1a1 = Col1a1 expression by RT-PCR in NIH3T3 cells; conditions: 10 μM, 50 μM or 1000 μM peptide, 24 hours, vs untreated group
Procedure: In this example, the aim was to confirm the effect of the peptide according to an example on improving endogenous skin aging, including improvement of wrinkles and enhancement of elasticity, etc., by evaluating the expression levels of collagen type 1 (Col1a1), fibronectin, elastin, and hyaluronic acid, which are known components of the dermis.
Specifically, NIH3T3 cells were seeded in a 6-well plate at a density of 3×10^5 cells/well and cultured for 24 hours. Next, the cells were washed once with serum-free DMEM media, and 10 μM, 50 μM or 1000 μM of a peptide consisting of an amino acid sequence of SEQ ID NO: 1 was dispensed into 1 mL of the serum-free media, and cultured in a CO2 incubator at 37° C. for 24 hours. Next, the culture was washed twice with PBS, and RNA was isolated from the culture using easy blue (iNtRON, Cat. No.: 17061, Korea). Next, using an RT kit (Enzynomics, Cat. NO.: RT200, Korea), the isolated RNA was reverse transcribed to synthesize the respective cDNA. Next, using the synthesized 1 ug cDNA, primers for Colla1, fibronectin, or elastin, and a PCR kit (Enzynomics, Cat. No.: P581T, Korea), polymerase chain reaction (PCR) was performed. […]

[1] = tested on: reactive oxygen species in HaCaT cells; assay: Reactive oxygen species increased by ultraviolet rays in HaCaT cells (DCF-DA, flow cytometry)
Procedure: In this example, the aim was to confirm the effect of the peptide according to an embodiment on the antioxidant effect in damaged skin, by evaluating the change in the level of reactive oxygen species in skin cells increased by ultraviolet irradiation.
Specifically, NIH3T3 cells or HaCaT cells were seeded in a 6-well plate at a density of 5×10^5 cells/well and cultured for 24 hours. Next, the cells were washed once with serum-free DMEM media, and 10 μM, 50 μM or 1000 μM of the peptide consisting of the amino acid sequence of SEQ ID NO: 1 was dispensed into 1 mL of the serum-free media, and cultured in a CO2 incubator at 37° C. for 1 hour. Next, the above culture was transferred to an e-tube, mixed with 1 ml of PBS, and dispensed into a well plate. Next, using a UV irradiator (VILBER LOURMAT, Cat No.: 3102-BSU, France), 6 J/cm^2 ultraviolet rays were irradiated to NIH3T3 cells, and 15 mJ/cm^2 ultraviolet rays were irradiated to HaCaT cells. Next, the PBS in the well plate was removed, 900 μL of the culture medium in which the peptides were dispensed was added, and the plate was cultured in a CO2 incubator at 37° C. for 24 hours. The culture was then treated with DCFG-DA (2′,7′-dichlorofluorescin diacetate), wrapped in foil, and cultured in a CO2 incubator at 37° C. for 30 minutes. Next, the culture was washed twice with PBS and treated with 500 μL of 1× trypsin/EDTA to acquired cells, which were then centrifuged. After washing the centrifuged cells with PBS, FL1 fluorescence values were measured through flow cytometry (FACS, BD, USA). […]
In this example, the aim was to compare in more detail, the effect of peptides according to an embodiment on the antioxidant effect in damaged skin cells. To this end, the peptide consisting of the amino acid sequence of SEQ ID NO: 2, 3, or 4 having a sequence similar to the peptide according to an embodiment was set as a comparison group, and the level of reactive oxygen species in skin cells increased by ultraviolet irradiation of HaCaT cells was evaluated and compared in the same manner as in Example 4-1. […]

SIRT-1 = SIRT-1 expression reduced by ultraviolet rays in HaCaT cells (RT-PCR); conditions: 15 mJ/cm^2 UV, 10 μM, 50 μM or 1000 μM peptide, 8 hours
Procedure: In this example, the aim was to confirm the effect of the peptide according to an embodiment on the recovery of skin barrier factors in damaged skin cells by evaluating changes in the levels of skin barrier factors in skin cells reduced by ultraviolet irradiation.
Specifically, HaCaT cells were seeded in a 6-well plate at a density of 5×10^5 cells/well and cultured for 24 hours. Next, the cells were washed once with serum-free DMEM media, and 10 μM, 50 μM or 1000 μM of the peptide consisting of the amino acid sequence of SEQ ID NO: 1 was dispensed into 1 mL of the serum-free media, and cultured in a CO2 incubator at 37° C. for 1 hour. Next, the above culture was transferred to an e-tube, mixed with 1 ml of PBS, and dispensed into a well plate. Next, using a UV irradiator (VILBER LOURMAT, Cat No.: 3102-BSU, France), 15 mJ/cm^2 ultraviolet rays were irradiated to the HaCaT cells. Next, the PBS in the well plate was removed, 900 μL of the culture medium in which the peptides were dispensed was added, and the plate was cultured in a CO2 incubator at 37° C. for 8 hours. Next, the culture was washed twice with PBS, and RNA was isolated from the culture using easy blue (iNtRON, Cat. No.: 17061, Korea). Next, using an RT kit (Enzynomics, Cat. NO.: RT200, Korea), the isolated RNA was reverse transcribed to synthesize the respective cDNA. […]

GPRGDP [SEQ ID NO: 1]
expression of Col1a1 (Col1a1): increased
reactive oxygen species reducing effect compared to the comparison group ([1]; HaCaT cells, vs peptides of SEQ ID NO: 2, 3, or 4 (50 μM, 100 μM)): superior
level of reactive oxygen species increased by ultraviolet irradiation ([1]; keratinocytes (HaCaT), 15 mJ/cm^2 UV, 10 μM, 50 μM or 1000 μM peptide, 24 hours): reduced
level of reactive oxygen species increased by ultraviolet irradiation (Example 4-2) ([1]; keratinocytes (HaCaT), comparison experiment, FIG. 11): reduced
expression of SIRT-1 reduced by ultraviolet irradiation (SIRT-1): increased or restored
